# Laboratory results taken from patent US11137686B2, “Material for forming underlayer film for lithography, composition for forming underlayer film for lithography, underlayer film for lithography and production method thereof, and resist pattern forming method” (Mitsubishi Gas Chemical Company, Inc., priority 2015, dated 2021).
# Tests used:
# [1] = Thermal weight loss temperature (thermogravimetric measurement, TG); format: physicochemical; settings: heated to 500° C. at 10° C./min, nitrogen stream
# Method: (Thermal Weight Loss Temperature)
# An “EXSTAR 6000 […] apparatus” manufactured by SII NanoTechnology Inc. was used, and about 5 mg of a sample was placed in an unsealed aluminum container and heated to 500° C. at a rate of temperature rise of 10° C./min in a nitrogen gas (30 mL/min) stream. The 10% thermal weight loss temperature was here measured.
# [2] = Solubility in PGME and PGMEA at 23° C.; format: physicochemical; settings: for solubility in PGME: 1-methoxy-2-propanol (PGME); for solubility in PGMEA: propylene glycol monomethyl ether acetate (PGMEA)
# Method: The amount of each compound dissolved in 1-methoxy-2-propanol (PGME) and propylene glycol monomethyl ether acetate (PGMEA) was measured at 23° C., and the results were evaluated with respect to the solubility according to the following criteria.
# Evaluation A: 20% by mass or more
# Evaluation B: 10% by mass or more and less than 20% by mass
# Evaluation C: less than 10% by mass
10% thermal weight loss temperature [1],solubility in PGME [2],"solubility in PGME, Evaluation [2]","solubility in PGMEA, Evaluation [2]",solubility in PGMEA [2],Structure (SMILES)
≥ 400 °C,≥ 20 % by mass,A (Evaluation A: 20% by mass or more),A (Evaluation A: 20% by mass or more),≥ 20 % by mass,Oc1ccc2c3c(ccc2c1)Oc1ccc2cc(O)ccc2c1C3c1ccc(I)o1 [A-4]
≥ 400 °C,≥ 20 % by mass,A (Evaluation A: 20% by mass or more),A (Evaluation A: 20% by mass or more),≥ 20 % by mass,COc1cc(C2c3c(ccc4ccc(O)cc34)Oc3ccc4ccc(O)cc4c32)cc(I)c1O [B-3]
≥ 400 °C,≥ 20 % by mass,A (Evaluation A: 20% by mass or more),A (Evaluation A: 20% by mass or more),≥ 20 % by mass,COc1cc(C2c3c(ccc4cc(O)ccc34)Oc3ccc4cc(O)ccc4c32)cc(I)c1O [A-3]
≥ 400 °C,≥ 20 % by mass,A (Evaluation A: 20% by mass or more),A (Evaluation A: 20% by mass or more),≥ 20 % by mass,Oc1ccc2ccc3c(c2c1)C(c1ccc(I)o1)c1c(ccc2ccc(O)cc12)O3 [B-4]
≥ 400 °C,≥ 20 % by mass,A (Evaluation A: 20% by mass or more),A (Evaluation A: 20% by mass or more),≥ 20 % by mass,Oc1ccc2ccc3c(c2c1)C(c1ccc(I)cc1)c1c(ccc2ccc(O)cc12)O3 [B-2]

Structure (SMILES),10% thermal weight loss temperature [1],solubility in PGME [2],"solubility in PGME, Evaluation [2]","solubility in PGMEA, Evaluation [2]",solubility in PGMEA [2]
Oc1ccc2c3c(ccc2c1)Oc1ccc2cc(O)ccc2c1C3c1ccc(I)cc1 [A-2],≥ 400 °C,≥ 20 % by mass,A (Evaluation A: 20% by mass or more),B (Evaluation B: 10% by mass or more and less than 20% by mass),
